Results from patent US8148391B2 (Cephalon, Inc., priority 2006, dated 2012).
Like-named read-outs stand apart in the source and are kept apart here.

Tests used:
[1] = target: T1, baculovirus-expressed ALK (Homo sapiens, UniProt Q9UM73); assay: ALK Kinase Assay (ELISA-type, time-resolved fluorescence); assay type: biochemical
T1 construct: host or cells: baculovirus expression system
In short: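 Substrate coating: phospholipase C-γ, 10 μg/mL in TBS. Kinase step: 30 ng/ml ALK, 15 min, 37° C. Detection and analysis: Eu-N1 PT66 antibody, with IC50 fitted as a sigmoidal variable-slope dose-response curve.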

[2] = target: T2, c-Met (cytoplasmic domain) (Homo sapiens, UniProt P08581); assay: c-Met Kinase Assay (same methods as for ALK, with modifications); assay type: biochemical
T2 construct: 10 ng/mL c-Met (cytoplasmic domain, Invitrogen Corporation #PV3143); purchased Invitrogen Corporation PV3143
T2 sequence (P08581 956-1390 limits assumed): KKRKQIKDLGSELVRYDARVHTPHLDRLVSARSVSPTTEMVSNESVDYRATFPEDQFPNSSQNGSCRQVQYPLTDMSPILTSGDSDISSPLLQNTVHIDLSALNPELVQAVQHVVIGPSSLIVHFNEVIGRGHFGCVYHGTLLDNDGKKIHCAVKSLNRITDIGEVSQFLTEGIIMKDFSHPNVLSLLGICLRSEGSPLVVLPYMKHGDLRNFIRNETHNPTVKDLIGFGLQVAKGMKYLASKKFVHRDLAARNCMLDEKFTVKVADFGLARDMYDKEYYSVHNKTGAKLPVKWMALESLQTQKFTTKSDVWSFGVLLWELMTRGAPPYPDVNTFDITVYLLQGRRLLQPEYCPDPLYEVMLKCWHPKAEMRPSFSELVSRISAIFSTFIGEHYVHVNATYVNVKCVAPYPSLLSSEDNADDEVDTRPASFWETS
In short: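 This plate-based kinase format uses immobilized phospholipase C-γ as substrate, phosphorylated by c-Met cytoplasmic domain (10 ng/mL) at 37° C for 15 minutes.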

[3] = 1 μM ATP (Km level), 30 ng/ml ALK, 37° C., 15 minutes, read-out: ALK Activity (ALK kinase inhibition, IC50 class)
[4] = 1 μM ATP (Km level), 10 ng/mL c-Met, read-out: cMet Activity (c-Met kinase inhibition, IC50 class)
[5] = ALK kinase inhibition, 1 μM ATP, read-out: ALK Activity
[6] = c-Met kinase inhibition, 1 μM ATP, read-out: cMet Activity
[7] = 1 μM ATP (Km level), read-out: ALK Activity (ALK Kinase Inhibition, IC50)
[8] = 1 μM ATP (Km level), read-out: cMet Activity (c-Met Kinase Inhibition, IC50)
[9] = ALK kinase inhibition, 1 μM ATP (Km level), read-out: ALK Activity
[10] = c-Met kinase inhibition, 1 μM ATP (Km level), read-out: cMet Activity

T1 sequence (Q9UM73 19-1620): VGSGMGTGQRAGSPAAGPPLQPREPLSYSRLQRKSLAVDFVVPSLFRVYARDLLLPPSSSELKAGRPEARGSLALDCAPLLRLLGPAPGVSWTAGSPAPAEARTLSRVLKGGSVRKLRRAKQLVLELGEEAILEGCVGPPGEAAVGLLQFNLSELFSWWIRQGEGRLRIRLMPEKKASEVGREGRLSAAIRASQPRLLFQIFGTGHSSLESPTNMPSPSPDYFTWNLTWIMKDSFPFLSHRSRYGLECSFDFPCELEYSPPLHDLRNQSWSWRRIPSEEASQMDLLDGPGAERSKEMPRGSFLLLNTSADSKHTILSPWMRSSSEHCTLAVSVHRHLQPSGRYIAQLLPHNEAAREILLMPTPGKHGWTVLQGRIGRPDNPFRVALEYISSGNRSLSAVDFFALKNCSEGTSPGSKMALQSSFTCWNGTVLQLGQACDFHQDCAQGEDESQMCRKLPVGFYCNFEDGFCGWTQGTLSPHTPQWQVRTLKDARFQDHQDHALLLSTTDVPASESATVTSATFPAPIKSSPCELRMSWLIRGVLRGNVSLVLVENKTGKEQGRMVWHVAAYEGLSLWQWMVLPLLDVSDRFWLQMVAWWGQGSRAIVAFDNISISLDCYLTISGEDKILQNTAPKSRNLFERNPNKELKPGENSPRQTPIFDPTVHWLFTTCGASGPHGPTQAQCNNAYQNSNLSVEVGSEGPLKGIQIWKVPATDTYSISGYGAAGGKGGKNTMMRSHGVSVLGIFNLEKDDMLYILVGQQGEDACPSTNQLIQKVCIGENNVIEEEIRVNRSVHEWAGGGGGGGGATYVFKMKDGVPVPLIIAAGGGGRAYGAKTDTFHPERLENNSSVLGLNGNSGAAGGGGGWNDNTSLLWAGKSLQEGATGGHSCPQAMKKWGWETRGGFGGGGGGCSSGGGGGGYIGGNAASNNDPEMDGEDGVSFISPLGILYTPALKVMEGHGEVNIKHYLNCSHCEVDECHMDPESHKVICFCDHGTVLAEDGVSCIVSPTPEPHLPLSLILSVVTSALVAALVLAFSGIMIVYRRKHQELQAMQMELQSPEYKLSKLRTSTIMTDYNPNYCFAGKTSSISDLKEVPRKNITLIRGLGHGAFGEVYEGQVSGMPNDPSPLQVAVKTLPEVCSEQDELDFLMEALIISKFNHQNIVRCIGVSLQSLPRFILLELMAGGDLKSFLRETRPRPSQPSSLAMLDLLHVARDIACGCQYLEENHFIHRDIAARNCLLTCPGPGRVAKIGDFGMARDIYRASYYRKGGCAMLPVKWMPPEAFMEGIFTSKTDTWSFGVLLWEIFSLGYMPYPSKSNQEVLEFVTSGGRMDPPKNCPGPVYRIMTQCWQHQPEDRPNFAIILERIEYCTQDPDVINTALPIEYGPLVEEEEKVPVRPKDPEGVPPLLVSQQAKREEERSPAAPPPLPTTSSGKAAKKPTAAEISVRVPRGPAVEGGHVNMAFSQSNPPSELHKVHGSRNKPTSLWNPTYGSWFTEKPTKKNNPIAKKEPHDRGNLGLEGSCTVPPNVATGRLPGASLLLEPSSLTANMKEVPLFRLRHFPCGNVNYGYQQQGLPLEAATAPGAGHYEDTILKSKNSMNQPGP

Compound: {2-[2-(1-Acetyl-4-oxo-1,2,3,4,5,6-hexahydro-benzo[b][1,5]diazocin-8-ylamino)-5-chloro-pyrimidin-4-ylamino]-3-methyl-phenoxy}-acetonitrile [Example 1247]
- IC50 [1, 3]: < 100 nM
- IC50 [2, 4]: 100 to 1000 nM

Compound: CNC(=O)c1ccccc1Nc1nc(Nc2ccc3c(c2)N(C(=O)CN2CCCC2)CCCO3)ncc1Cl [Example 1706, 2-{5-Chloro-2-[9-(2-pyrrolidin-1-yl-acetyl)-6,7,8,9-tetrahydro-5-oxa-9-aza-benzocyclohepten-2-ylamino]-pyrimidin-4-ylamino}-N-methyl-benzamide]
- IC50 [1, 5]: 100 to 1000 nM
- IC50 [2, 6]: 100 to 1000 nM

Compound: COc1c(Nc2ncc(Cl)c(Nc3ccccc3S(=O)(=O)N(C)C)n2)ccc2c1CCC(N1CCOCC1)CC2 (centres unmarked) [Example 889, 2-[5-Chloro-2-(1-methoxy-7-morpholin-4-yl-6,7,8,9-tetrahydro-5H-benzocyclohepten-2-ylamino)-pyrimidin-4-ylamino]-N,N-dimethyl-benzenesulfonamide]
- IC50 [1, 7]: < 100 nM
- IC50 [2, 8]: 1000 to 10000 nM

Compound: CN1C(=O)OCCc2cc(Nc3ncc(Cl)c(Nc4c(F)cccc4OCCN)n3)ccc21 [Example 1781, 2-{4-[2-(2-Amino-ethoxy)-6-fluoro-phenylamino]-5-chloro-pyrimidin-2-ylamino}-5-methyl-8,9-dihydro-5H-7-oxa-5-aza-benzocyclohepten-6-one]
- IC50 [1, 5]: 1000 to 10000 nM
- IC50 [2, 6]: 1000 to 10000 nM

Compound: CCOC(=O)c1ccccc1Nc1nc(Nc2ccc3c(c2)CCN(CCOC)CC3)ncc1Cl [Example 1395, {5-Chloro-2-[3-(2-methoxy-ethyl)-2,3,4,5-tetrahydro-1H-benzo[d]azepin-7-ylamino]-pyrimidin-4-ylamino}-benzoic acid ethyl ester]
- IC50 [1, 3]: < 100 nM
- IC50 [2, 4]: 100 to 1000 nM

Compound: COc1c(Nc2ncc(Cl)c(Nc3ccccc3S(=O)(=O)N3CCCC3)n2)ccc2c1CCC(NCCO)CC2 (centres unmarked) [Example 704, 2-(2-{5-Chloro-4-[2-(pyrrolidine-1-sulfonyl)-phenylamino]-pyrimidin-2-ylamino}-1-methoxy-6,7,8,9-tetrahydro-5H-benzocyclohepten-7-ylamino)-ethanol]
- IC50 [1, 7]: < 100 nM
- IC50 [2, 8]: 100 to 1000 nM

Compound: CCN1CCc2ccc(Nc3ncc(Cl)c(NC(C)(C)CNS(C)(=O)=O)n3)cc2CC1 [Example 307, N-{2-[5-Chloro-2-(3-ethyl-2,3,4,5-tetrahydro-1H-benzo[d]azepin-7-ylamino)-pyrimidin-4-ylamino]-2-methyl-propyl}-methanesulfonamide]
- IC50 [1, 9]: 1000 to 10000 nM
- IC50 [2, 10]: > 10000 nM

Compound: CNC(=O)c1ccccc1Nc1nc(Nc2ccc(OC)c3c2N(C)C(=O)CCC3)ncc1Cl [Example 123, 2-[5-Chloro-2-(6-methoxy-1-methyl-2-oxo-2,3,4,5-tetrahydro-1H-benzo[b]azepin-9-ylamino)-pyrimidin-4-ylamino]-N-methyl-benzamide]
- IC50 [1, 9]: 100 to 1000 nM
- IC50 [2, 10]: > 10000 nM

Compound: CNC(=O)c1ccccc1Nc1nc(Nc2ccc3c(c2)N(C)C(=O)CCC3)ncc1Cl [Example 108, 2-[5-Chloro-2-(1-methyl-2-oxo-2,3,4,5-tetrahydro-1H-benzo[b]azepin-8-ylamino)-pyrimidin-4-ylamino]-N-methyl-benzamide]
- IC50 [1, 9]: < 100 nM
- IC50 [2, 10]: < 100 nM

Compound: COCCN1CCc2ccc(Nc3ncc(Cl)c(NC(C)(C)CNS(C)(=O)=O)n3)cc2CC1 [Example 306, N-(2-{5-Chloro-2-[3-(2-methoxy-ethyl)-2,3,4,5-tetrahydro-1H-benzo[d]azepin-7-ylamino]-pyrimidin-4-ylamino}-2-methyl-propyl)-methanesulfonamide]
- IC50 [1, 9]: 100 to 1000 nM
- IC50 [2, 10]: > 10000 nM

Compound: CCN1CC(=O)Nc2cc(Nc3ncc(Cl)c(Nc4ccccc4S(=O)(=O)N(C)C)n3)c(OC)cc2C1 [Example 1659, 2-[5-Chloro-2-(4-ethyl-7-methoxy-2-oxo-2,3,4,5-tetrahydro-1H-benzo[e][1,4]diazepin-8-ylamino)-pyrimidin-4-ylamino]-N,N-dimethyl-benzenesulfonamide]
- IC50 [1, 5]: < 100 nM
- IC50 [2, 6]: > 10000 nM

Compound: COc1cc2c(cc1Nc1ncc(Cl)c(N[C@@H]3CCCC[C@H]3NS(C)(=O)=O)n1)NC(=O)CN(Cc1ccccc1)C2 [Example 1651, N-{(1R,2R)-2-[2-(4-Benzyl-7-methoxy-2-oxo-2,3,4,5-tetrahydro-1H-benzo[e][1,4]diazepin-8-ylamino)-5-chloro-pyrimidin-4-ylamino]-cyclohexyl}-methanesulfonamide]
- IC50 [1, 5]: < 100 nM
- IC50 [2, 6]: > 10000 nM

Compound: CNC(=O)c1ccccc1Nc1nc(Nc2ccc3c(c2)C2CCC(C3)N2C(=O)C2CC2)ncc1Cl (centres unmarked) [Example 70, 2-[5-Chloro-2-(12-cyclopropanecarbonyl-12-aza-tricyclo[7.2.1.0*2,7*]dodeca-2(7),3,5-trien-4-ylamino)-pyrimidin-4-ylamino]-N-methyl-benzamide]
- IC50 [1, 9]: < 100 nM
- IC50 [2, 10]: < 100 nM

Compound: COc1c(Nc2ncc(Cl)c(N[C@H]3[C@@H](C(N)=O)[C@@H]4C=C[C@H]3C4)n2)ccc2c1CCCC(N1CCOCC1)C2 (single isomer, unassigned) [Example 941]
- IC50 [1, 7]: < 100 nM
- IC50 ([2]; read-out: cMet Activity (c-Met Kinase Inhibition, IC50), 1 μM ATP (Km level)): > 10000 nM

Compound: NC(=O)C1C2C=CC(C2)C1Nc1nc(Nc2ccc3c(c2)CNC(=O)CC3)ncc1Cl (stereo not drawn) [Example 1797, 3-exo-[5-Chloro-2-(3-oxo-2,3,4,5-tetrahydro-1H-benzo[c]azepin-8-ylamino)-pyrimidin-4-yl]aminobicyclo[2.2.1]hept-5-ene-2-exo-carboxamide]
- IC50 [1, 5]: < 100 nM
- IC50 [2, 6]: 100 to 1000 nM

Compound: COc1cc2c(cc1Nc1ncc(Cl)c(Nc3ccccc3S(=O)(=O)N3CC[C@H](O)C3)n1)CCN(CC(=O)N(C)C)CC2 [Example 1206, 2-(7-{5-Chloro-4-[2-((S)-3-hydroxy-pyrrolidine-1-sulfonyl)-phenylamino]-pyrimidin-2-ylamino}-8-methoxy-1,2,4,5-tetrahydro-benzo[d]azepin-3-yl)-N,N-dimethyl-acetamide]
- IC50 [1, 3]: < 100 nM
- IC50 [2, 4]: 1000 to 10000 nM

Compound: COc1cc2c(cc1Nc1ncc(Cl)c(N[C@@H]3CCCC[C@H]3NS(C)(=O)=O)n1)CCC(NCCO)CC2 (single isomer, unassigned) [Example 1095]
- IC50 [1, 3]: < 100 nM
- IC50 [2, 4]: > 10000 nM

Compound: COCCN1CC(=O)Nc2cc(Nc3ncc(Cl)c(N[C@@H]4CCCC[C@H]4NS(C)(=O)=O)n3)c(OC)cc2C1 [Example 1664, N-(1R,2R)-(2-{5-Chloro-2-[7-methoxy-4-(2-methoxy-ethyl)-2-oxo-2,3,4,5-tetrahydro-1H-benzo[e][1,4]diazepin-8-ylamino]-pyrimidin-4-ylamino}-cyclohexyl)-methanesulfonamide]
- IC50 [1, 5]: < 100 nM
- IC50 [2, 6]: > 10000 nM

Compound: CCN1C(=O)CCCc2c1ccc(Nc1ncc(Cl)c(NC3C4C=CC(C4)C3C(=O)NC(C)C)n1)c2OC (stereo not drawn) [Example 603, (2-exo-3-exo)-3-[5-Chloro-2-(1-ethyl-6-methoxy-2-oxo-2,3,4,5-tetrahydro-1H-benzo[b]azepin-7-ylamino)-pyrimidin-4-ylamino]-bicyclo[2.2.1]hept-5-ene-2-carboxylic acid isopropylamide]
- IC50 [1, 7]: 100 to 1000 nM
- IC50 [2, 8]: > 10000 nM

Compound: COc1cc2c(cc1Nc1ncc(Cl)c(Nc3cc(C(N)=O)ccc3OC)n1)CCN(CCS(C)(=O)=O)CC2 [Example 1137, 3-{5-Chloro-2-[3-(2-methanesulfonyl-ethyl)-8-methoxy-2,3,4,5-tetrahydro-1H-benzo[d]azepin-7-ylamino]-pyrimidin-4-ylamino}-4-methoxy-benzamide]
- IC50 [1, 3]: 100 to 1000 nM
- IC50 [2, 4]: > 10000 nM

Compound: COCCN1CCc2ccc(OC)c(Nc3ncc(Cl)c(N[C@@H]4CCCC[C@H]4NS(C)(=O)=O)n3)c2CC1 [Example 244, N-((1R,2R)-2-{5-Chloro-2-[7-methoxy-3-(2-methoxy-ethyl)-2,3,4,5-tetrahydro-1H-benzo[d]azepin-6-ylamino]-pyrimidin-4-ylamino}-cyclohexyl)-methanesulfonamide]
- IC50 [1, 9]: 1000 to 10000 nM
- IC50 [2, 10]: > 10000 nM

Compound: CNC(=O)c1cc(F)ccc1Nc1nc(Nc2ccc3c(c2)-n2ccnc2CCC3)ncc1Cl [Example 1841, 2-[5-Chloro-2-(5,6-dihydro-4H-3,10b-diaza-benzo[e]azulen-9-ylamino)-pyrimidin-4-ylamino]-5-fluoro-N-methyl-benzamide]
- IC50 [1, 5]: 1000 to 10000 nM
- IC50 [2, 6]: 100 to 1000 nM

Compound: CNC(=O)c1ccc2c(c1Nc1nc(Nc3ccc4c(c3)CCN(CCOC)CC4)ncc1Cl)OCO2 [Example 1480, 4-{5-Chloro-2-[3-(2-methoxy-ethyl)-2,3,4,5-tetrahydro-1H-benzo[d]azepin-7-ylamino]-pyrimidin-4-ylamino}-benzo[1,3]dioxole-5-carboxylic acid methylamide]
- IC50 [1, 5]: 100 to 1000 nM
- IC50 [2, 6]: 1000 to 10000 nM

Compound: CS(=O)(=O)c1cccc(F)c1Nc1nc(Nc2ccc3c(c2)NC(=O)CCC3)ncc1Cl [Example 1261, 8-[5-Chloro-4-(2-fluoro-6-methanesulfonyl-phenylamino)-pyrimidin-2-ylamino]-1,3,4,5-tetrahydro-1-benzazepin-2-one]
- IC50 [1, 3]: 1000 to 10000 nM
- IC50 [2, 4]: > 10000 nM

Compound: CNC(=O)c1cccc(Cl)c1Nc1nc(Nc2ccc3c(c2)CN(C)C(=O)CC3)ncc1Cl [Example 1805, 3-Chloro-2-[5-chloro-2-(2-methyl-3-oxo-2,3,4,5-tetrahydro-1H-benzo[c]azepin-8-ylamino)-pyrimidin-4-ylamino]-N-methyl-benzamide]
- IC50 [1, 5]: < 100 nM
- IC50 [2, 6]: 100 to 1000 nM
